Laboratory results from patent US9029366B2, “Substituted bicyclic alkoxy pyrazole analogs as allosteric modulators of mGluR5 receptors” (Vanderbilt University, priority 2012, dated 2015).

Key:
[1] = test system: amphetamine-induced hyperlocomotion in male Sprague-Dawley rats; experiment: Reversal of amphetamine-induced hyperlocomotion (rat hyperlocomotion assay); format: in vivo; details: vehicle 20% HP-β-CD
Experimental: A suitable assay for determination of the in vivo effects of the disclosed compounds is the induced hyperlocomotion animal model. Briefly, locomotor activity can be assessed as mean distance traveled (cm) in standard 16×16 photocell testing chambers measuring 43.2 cm (Length)×43.2 cm (Width)×30.5 cm (Height) (Med Associates, St. Albans, Vt.). Animals are habituated to individual activity chambers for at least 30 min prior to drug administration. Following administration of drug or vehicle, activity is recorded for a 90 minute time period. Data are expressed as the mean (±SEM) distance traveled recorded in 5 min intervals over the test period. The data are analyzed using repeated measures analysis of variance (ANOVA) followed by post-hoc testing using Dunnett's test, when appropriate. A difference is considered significant when p≦0.05.
The study was carried out using male Sprague-Dawley rats weighing 225 g-275 g, between 2-3 months old (Harlan, Inc., Indianapolis, Ind.). They were kept in the animal care facility certified by the American Association for the Accreditation of Laboratory Animal Care (AALAC) under a 12-hour light/dark cycle (lights on: 6 a.m.; lights off: 6 p.m.) and had free access to food and water. The experimental protocols performed during the light cycle were approved by the Institutional Animals Care and Use Committee of Vanderbilt University and conformed to the guidelines established by the National Research Council Guide for the Care and Use of Laboratory Animals
Locomotor activity was assessed as mean distance traveled (cm) in Smart Open Field locomotor activity test chambers (Hamilton-Kinder, San Diego, Calif.) with 16×16 photobeams with chambers measuring 43.2 cm (Length)×43.2 cm (Width)×30.5 cm (Height) (Med Associates, St. Albans, Vt.). The animals were habituated for 30 min and then dosed with vehicle or test compound. The rats were then placed into cages. At 60 min, all rats were injected subcutaneously with 1 mg/kg amphetamine or vehicle and then monitored for an additional 60 min. Animals are monitored for a total of 120 minutes.
Data are expressed as the mean (±SEM) distance traveled recorded in 5 min intervals over the test period. The data was analyzed using repeated measures analysis of variance (ANOVA) followed by post-hoc testing using Dunnett's test, when appropriate. A difference was considered significant when p≦0.05. The data for the dose-response studies were analyzed by a between-group analysis of variance. If there was a main effect of dose, then each dose group was compared with the vehicle amphetamine group. The calculations were performed using JMP IN 8 (SAS Institute, Cary, N.C.) statistical software and graphed using SigmaPlot9 (Saugua, Mass.).
Amphetamine sulfate was obtained from Sigma (Cat #A5880-1G; St. Louis, Mo.) and 10 mg was dissolved in 10 ml of water. Test compound, 2-(benzyloxy)-5-[(4-fluorophenyl)carbonyl]-4,5,6,7-tetrahydropyrazolo[1,5-a]pyrazine, was formulated in a volume of 10 ml with an amount of drug appropriate to the dosage indicated. The appropriate amount of compound was mixed into a 20% 2-hydroxypropyl-β-cyclodextrin (2-HP-β-CD) solution. The solution was formulated so that animals were injected with a volume equal to […]. The mixture was then ultrahomogenized on ice for 2-3 minutes using the Dismembrator (Fisher Scientific Model 150T). Then the pH was checked using 0-14 EMD strips and adjusted to a pH of 6-7 if necessary. […]

human mGluR5 = human mGluR5 (Homo sapiens, UniProt P41594); experiment: Cell-based functional Ca2+ mobilization assay (FDSS), potentiation of glutamate EC20 response, HEK293A cells transfected with human mGluR5a (H10H or H12H cell line); details: H10H cell line expressing recombinant human mGluR5, in presence of glutamate EC20, ** = compound is an antagonist; for EC50: read-out: pEC50 (converted); for Emax: HEK293-A, % of maximal glutamate response
human mGluR5, sequence (P41594 21-1180 isoform P41594-2 limits assumed): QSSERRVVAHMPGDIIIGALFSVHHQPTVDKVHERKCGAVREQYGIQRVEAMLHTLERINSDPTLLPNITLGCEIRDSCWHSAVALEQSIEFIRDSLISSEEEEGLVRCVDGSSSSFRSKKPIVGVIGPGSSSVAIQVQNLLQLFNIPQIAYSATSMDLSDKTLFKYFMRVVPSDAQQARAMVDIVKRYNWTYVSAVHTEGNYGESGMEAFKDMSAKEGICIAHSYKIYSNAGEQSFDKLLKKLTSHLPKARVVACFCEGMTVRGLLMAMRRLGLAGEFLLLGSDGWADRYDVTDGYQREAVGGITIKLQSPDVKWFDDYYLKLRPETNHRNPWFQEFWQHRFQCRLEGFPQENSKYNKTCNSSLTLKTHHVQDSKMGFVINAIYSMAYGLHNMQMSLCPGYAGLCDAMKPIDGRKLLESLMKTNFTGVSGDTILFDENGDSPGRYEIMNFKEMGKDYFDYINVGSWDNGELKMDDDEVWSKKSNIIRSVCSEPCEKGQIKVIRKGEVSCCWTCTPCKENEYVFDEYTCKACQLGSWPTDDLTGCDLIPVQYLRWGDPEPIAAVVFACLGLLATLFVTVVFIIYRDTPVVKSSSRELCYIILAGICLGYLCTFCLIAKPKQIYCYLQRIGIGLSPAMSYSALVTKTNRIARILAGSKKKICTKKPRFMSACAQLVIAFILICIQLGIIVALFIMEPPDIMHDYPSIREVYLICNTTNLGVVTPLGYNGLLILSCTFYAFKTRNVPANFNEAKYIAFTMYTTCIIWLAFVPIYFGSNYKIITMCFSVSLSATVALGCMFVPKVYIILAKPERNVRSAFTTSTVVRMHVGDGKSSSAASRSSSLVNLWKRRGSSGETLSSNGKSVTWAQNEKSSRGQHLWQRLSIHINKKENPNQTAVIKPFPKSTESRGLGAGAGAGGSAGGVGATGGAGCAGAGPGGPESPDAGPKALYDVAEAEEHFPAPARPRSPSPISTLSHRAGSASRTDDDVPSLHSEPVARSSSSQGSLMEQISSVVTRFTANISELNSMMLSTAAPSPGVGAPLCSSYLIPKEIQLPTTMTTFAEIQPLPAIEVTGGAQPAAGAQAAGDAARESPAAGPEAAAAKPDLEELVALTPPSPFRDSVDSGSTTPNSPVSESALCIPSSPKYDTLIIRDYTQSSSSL
Experimental: Human embryonic kidney (HEK) cells transfected with rat mGluR5 were plated in clear bottom assay plates for assay in a Functional Drug Screening System (FDSS). In the alternative assay, HEK cells transfected with human mGluR5 were plated for assay in the FDSS. In some cases the HEK cells transfected with human mGluR5 are the H10H cell line. Alternatively, the HEK cells transfected with human mGluR5 are the H12H cell line. […] The cells were loaded with a Ca^2+-sensitive fluorescent dye (e.g., Fluo-4), and the plates were washed and placed in the FDSS instrument. After establishment of a fluorescence baseline for about three seconds, the compounds of the present invention were added to the cells, and the response in cells was measured. Five minutes later, an mGluR5 agonist (e.g., glutamate, 3,5-dihydroxyphenylglycine, or quisqualate) was added to the cells, and the response of the cells was measured.
The above described assay can be operated in two modes. In the first mode, a range of concentrations of the present compounds were added to cells, followed by a single fixed concentration of agonist. If a compound acted as a potentiator, an EC50 value for potentiation and a maximum extent of potentiation by the compound at this concentration of agonist was determined by non-linear curve fitting. In the second mode, several fixed concentrations of the present compounds were added to various wells on a plate, followed by a range of concentrations of agonist for each concentration of present compound; the EC50 values for the agonist at each concentration of compound were determined by non-linear curve fitting. A decrease in the EC50 value of the agonist with increasing concentrations of the present compounds (a leftward shift of the agonist concentration-response curve) is an indication of the degree of mGluR5 potentiation at a given concentration of the present compound. An increase in the EC50 value of the agonist with increasing concentrations of the present compounds (a rightward shift of the agonist concentration-response curve) is an indication of the degree of mGluR5 antagonism at a given concentration of the present compound. The second mode also indicates whether the present compounds also affect the maximum response to mGluR5 to agonists.
Human mGluR5a cDNA in pCMV6-XL6 mammalian expression plasmid was purchased from OriGene Technologies, Inc. (catalogue number SC326357) and subcloned into pcDNA3.1(−). Human embryonic kidney (HEK)293A cells were then transfected with human mGluR5a pcDNA3.1(−) using LipofectAmine2000 (Invitrogen) and monoclones were selected and tested for functional response using a Ca^2+ mobilization assay. Monoclones were named for the species (“H” for human) plus the location on the plate (e.g. “10H”).
HEK cells transfected with the human mGluR5a receptor (H10H or H12H cell line) were plated at 15,000 cells/well in clear-bottomed poly-D-lysine-coated assay plates (BD Falcon) in glutamate-glutamine-free growth medium and incubated overnight at 37° C. and 5% CO2. Cell-lines used were either the H10H or H12H cell-lines expressing the human mGluR5 receptor. The following day, the growth medium was removed and the cells were washed with assay buffer containing 1× Hank's balanced salt solution (Invitrogen, Carlsbad, Calif.), 20 mM HEPES, 2.5 mM probenecid, pH 7.4 and left with 20 μL of this reagent. Following this step, the cells were loaded with calcium indicator dye, fluo-4 AM, to a final concentration of 2 μM and incubated for 40-45 min at 37° C. The dye solution was removed and replaced with assay buffer. Cell plates were held for 10-15 min at room temperature and were then loaded into the Functional Drug Screening System 6000 (FDSS 6000, Hamamatsu, Japan).
After establishment of a fluorescence baseline for about 3 seconds, the compounds of the present invention were added to the cells, and the response in cells was measured.

Row | Structure (SMILES) | % Reversal of amphetamine-induced hyperlocomotion ([1]; 3 mg/kg test compound p.o. + 1 mg/kg Amph s.c.) [%] | % Reversal of amphetamine-induced hyperlocomotion ([1]; 10 mg/kg test compound p.o. + 1 mg/kg Amph s.c.) [%] | % Reversal of amphetamine-induced hyperlocomotion ([1]; 30 mg/kg test compound p.o. + 1 mg/kg Amph s.c.) [%] | % Reversal of amphetamine-induced hyperlocomotion ([1]; 56.6 mg/kg test compound p.o. + 1 mg/kg Amph s.c.) [%] | % Reversal of amphetamine-induced hyperlocomotion ([1]; 100 mg/kg test compound p.o. + 1 mg/kg Amph s.c.) [%] | melting point [°C] | EC50 (human mGluR5) [nM] | Emax (human mGluR5) [%]
1 | O=C(c1ccc(F)cc1)N1CCn2nc(OCc3ccccc3)cc2C1 [test compound, 2-(benzyloxy)-5-[(4-fluorophenyl)carbonyl]-4,5,6,7-tetrahydropyrazolo[1,5-a]pyrazine] | 14 | 32 | 44 | 42 | 41 | 187.7 | – | –
2 | N#Cc1cccc(COc2cc3n(n2)CCN(C(=O)c2ccccc2Cl)C3)c1 [Example B131] | – | – | – | – | – | 116.8 | > 30200 | 16
3 | N#Cc1cccc(COc2cc3n(n2)CCN(C(=O)c2cccc(F)c2)C3)c1 [Example B106] | – | – | – | – | – | 103.3 | 166 | 37
4 | O=C(c1ccccc1)N1CCn2nc(OCc3ccc(F)cc3)cc2C1 [Example B97] | – | – | – | – | – | 131 | 331 | 48
5 | COc1cccc(COc2cc3n(n2)CCN(C(=O)c2ccc(F)cc2)C3)c1 [Example B16] | – | – | – | – | – | 120.8 | 1410 | 49
6 | O=C(c1ccc(F)cc1)N1CCCn2nc(OCc3ccncc3)cc2C1 [Example B89] | – | – | – | – | – | > 300 | > 10000 | 40
7 | Cc1cccc(COc2cc3n(n2)CCN(C(=O)c2ccc(F)cc2)C3)c1 [Example B13] | – | – | – | – | – | 118.9 | 339 | 59
8 | O=C(c1ccc(F)cc1F)N1CCn2nc(OCc3ccccc3F)cc2C1 [Example B133] | – | – | – | – | – | 132.8 | 166 | 76
9 | O=C(c1cccc(F)c1)N1CCn2nc(OCc3ccccc3)cc2C1 [Example B2, 2-(benzyloxy)-5-[(3-fluorophenyl)carbonyl]-4,5,6,7-tetrahydropyrazolo[1,5-a]pyrazine] | – | – | – | – | – | 120.8 | 251 | 46
10 | O=C(c1ccc(F)cc1F)N1CCn2nc(OCc3ccccc3)cc2C1 [Example B102] | – | – | – | – | – | 182.1 | 148 | 76
11 | O=C(c1cc(F)ccc1F)N1CCn2nc(OCc3ccccc3)cc2C1 [Example B114] | – | – | – | – | – | 123.7 | 417 | 72
12 | O=C(c1cccc(Cl)c1)N1CCn2nc(OCc3cccc(F)c3)cc2C1 [Example B98] | – | – | – | – | – | 117 | 112 | 66
13 | N#Cc1ccc(COc2cc3n(n2)CCN(C(=O)c2ccccc2)C3)cc1 [Example B110] | – | – | – | – | – | 155.6 | > 30200 | 30
14 | N#Cc1cccc(COc2cc3n(n2)CCN(C(=O)c2ccccc2)C3)c1 [Example B95] | – | – | – | – | – | 150.4 | 66.1 | 48.5
15 | O=C(c1ccc(F)cc1)N1CCn2nc(OCc3ccccc3F)cc2C1 [Example B11] | – | – | – | – | – | 135.2 | 234 | 64
